Square brackets hold non-standard residues; d marks the D form. Peptide text beside a SMILES is read from it. * marks the point of attachment. Morpholide = C1CN(*)CCO1; Nle = CCCC[C@H](N)C(=O)O; Piperidide = C1CCN(*)CC1; Pyrrolidide = C1CCN(*)C1; NHDecyl = CCCCCCCCCCN*; PhAc = O=C(Cc1ccccc1)*; Bz = O=C(c1ccccc1)*; NHBu = CCCCN*

T1 sequence (P13612 34-1032): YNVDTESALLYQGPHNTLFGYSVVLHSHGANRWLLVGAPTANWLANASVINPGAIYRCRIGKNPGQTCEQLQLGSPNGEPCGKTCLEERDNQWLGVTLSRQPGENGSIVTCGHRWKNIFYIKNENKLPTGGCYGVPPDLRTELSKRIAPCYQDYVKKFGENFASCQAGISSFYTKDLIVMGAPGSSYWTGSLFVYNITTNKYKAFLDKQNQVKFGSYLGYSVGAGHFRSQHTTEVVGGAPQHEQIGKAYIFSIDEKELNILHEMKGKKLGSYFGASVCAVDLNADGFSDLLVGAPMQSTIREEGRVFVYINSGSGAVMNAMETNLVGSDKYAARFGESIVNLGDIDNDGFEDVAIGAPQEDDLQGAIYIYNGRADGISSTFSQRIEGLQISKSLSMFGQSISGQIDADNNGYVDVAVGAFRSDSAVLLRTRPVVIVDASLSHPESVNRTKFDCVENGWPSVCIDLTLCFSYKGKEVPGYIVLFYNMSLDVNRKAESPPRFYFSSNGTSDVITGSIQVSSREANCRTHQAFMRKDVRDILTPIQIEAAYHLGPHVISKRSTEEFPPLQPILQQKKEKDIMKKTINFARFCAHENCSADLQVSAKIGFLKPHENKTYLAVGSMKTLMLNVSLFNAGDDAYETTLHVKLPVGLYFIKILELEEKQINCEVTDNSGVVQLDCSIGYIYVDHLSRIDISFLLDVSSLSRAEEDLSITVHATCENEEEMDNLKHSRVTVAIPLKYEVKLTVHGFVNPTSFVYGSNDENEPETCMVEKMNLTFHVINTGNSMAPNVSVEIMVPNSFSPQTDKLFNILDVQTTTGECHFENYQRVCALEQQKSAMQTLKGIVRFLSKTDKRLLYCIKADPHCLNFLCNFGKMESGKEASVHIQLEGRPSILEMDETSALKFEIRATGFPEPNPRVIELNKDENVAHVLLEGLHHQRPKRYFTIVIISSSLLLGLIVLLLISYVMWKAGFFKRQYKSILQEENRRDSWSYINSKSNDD
T1 sequence (P05556 21-798): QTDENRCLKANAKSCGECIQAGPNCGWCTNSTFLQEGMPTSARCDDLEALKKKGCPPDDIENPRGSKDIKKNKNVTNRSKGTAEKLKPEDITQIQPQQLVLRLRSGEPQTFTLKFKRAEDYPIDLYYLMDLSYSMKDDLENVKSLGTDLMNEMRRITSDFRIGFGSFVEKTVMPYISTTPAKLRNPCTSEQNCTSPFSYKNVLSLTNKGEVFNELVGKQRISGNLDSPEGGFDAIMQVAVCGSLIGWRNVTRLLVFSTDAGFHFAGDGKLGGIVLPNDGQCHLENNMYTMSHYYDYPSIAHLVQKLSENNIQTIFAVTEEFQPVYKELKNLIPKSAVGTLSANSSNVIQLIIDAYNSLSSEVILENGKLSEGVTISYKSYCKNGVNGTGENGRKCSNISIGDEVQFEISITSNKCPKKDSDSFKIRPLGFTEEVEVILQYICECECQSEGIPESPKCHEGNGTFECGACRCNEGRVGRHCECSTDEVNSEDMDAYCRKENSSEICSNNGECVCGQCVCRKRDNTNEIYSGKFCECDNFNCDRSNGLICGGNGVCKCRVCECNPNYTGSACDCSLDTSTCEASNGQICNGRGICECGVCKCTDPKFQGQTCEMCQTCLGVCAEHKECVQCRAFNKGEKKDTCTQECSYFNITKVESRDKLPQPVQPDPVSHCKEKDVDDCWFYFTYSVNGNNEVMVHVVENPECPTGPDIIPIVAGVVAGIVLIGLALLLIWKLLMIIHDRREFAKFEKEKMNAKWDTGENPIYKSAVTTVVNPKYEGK

The first experiment has as its target T1, VLA-4 (Homo sapiens, UniProt P05556+P13612).
T1 construct: host or cells: Jurkat (human T lymphoblastic line)
Format: cell-based.
Conditions: not given
As to the method: Binding inhibition is measured here as a concentration of peptide that inhibits one-half the binding between a standard number of Jurkat cells and a standard amount of CS-1 peptide bound to the surface of a microtiter plate well. Those concentrations are conveniently expressed as IC50 values, smaller numbers indicating a lower concentration required to inhibit 50 percent binding and therefore greater potency. Further specifics of this assay are provided hereinafter.
Jurkat cells (ATCC TIB 152), a human T lymphoblastic line, labeled with ^51 chromium were used to assay in vitro binding inhibition provided by various peptides discussed herein.
The plates were prepared as follows: The 25-mer CS1 peptide (SEQ ID NO:1) dissolved at 0.5-1 μg/ml in a buffer of 0.1M NaHCO3 at pH 9.5 tha also contained 10 μg/ml of bovine serum albumin (BSA) or a conjugate o the CS1 peptide linked to ovalbumin (CS1-OVA) dissolved at 1-2.5 μg/ml in the same buffer was used as the substrate. Each well of the microtiter plates was coated with 50 μl of substrate or buffer alone for controls The wells were permitted to dry out completely and were then rinsed twice with PBS at pH 7.4. Nonspecific binding sites of each well were then blocked using 200 μl per well of RPMI/1 percent BSA for two hours at room temperature. Both solid phaseaffixed substrates provided similar results.
Jurkat cells (3-5×10^6 cells) were placed into a 15 ml Falcon.TM roundbottom tube with a cap. The tube was centrifuged, and the extra medium was then removed.
Two hundred microliters of a ^51 Cr labeling solution were added to th centrifuged cells and maintained in contact with the cells for 90-120 minutes in a warm room. This procedure typically provides about 50,000-100,000 cpm/well with about 80-100 percent cell viability. Longer contact times provide a greater amount of labeling but lower cell viability.
The labeled cells are washed with (i) complete medium, (ii) 1 mM EDTA/PBS and then (iii) RPMI/1 percent BSA free of serum components. The cells are centrifuged after each washing. The cells are finally resuspended in serumfree RPMI/1 percent BSA at a concentration of 1×10^6 viabl cells/ml, which provides a concentration that is diluted by onehalf in th assay.
Inhibitor peptides are prepared as stock solutions at 20 mg/ml in DMSO in 1.5 ml cryogenic screwcap vials, and were stored at -70° C. Using Flow™ roundbottom or Vbottom microtiter plates, the inhibitor peptides were prepared at twice the assay concentration in RPMI/1 percent BSA at 6 μl/well.
Four initial dilutions were typically used.
The ^51 Crlabeled cells (1×10^6 cells at 60 μl/well) were then admixed with the diluted peptide solutions. The admixtures were maintained at room temperature (about 22° C.) for 30 minutes.
One hundred microliters of each inhibitor peptide/cell admixture were transferred to the substratecoated wells. This was done in triplicate for each dilution. The resulting plates were incubated for 30 minutes at 37° C. and then washed gently three times with RPMI/1 percent BSA at 200 μl/well. Binding was observed microscopically, particularly after the second wash.
The bound cells were then lysed by the addition of a 0.5 percent solution of sodium dodecylsulfate in water at 100 μl/well. The resulting solutions were then processed for counting and calculation of IC50 values following usual procedures. Appropriate positive and negative controls were used with each plate so that the results of separate assays could be normalized and compared.
For `CC(=O)N[C@@H](CC(C)C)C(=O)N[C@@H](CC(=O)O)C(=O)N[C@@H](Cc1ccccc1)C(N)=O` [L D F acetyl amide] (Ac-Leu-Asp-Phe-NH2), the “RELATIVE POTENCY (inhibition of VLA-4 binding CS-1)” value came out at 0.

Consider `CC(=O)N[C@@H](CC(C)C)C(=O)N[C@@H](CC(=O)O)C(=O)N[C@H](C(N)=O)C(C)C` [L D V acetyl amide, reference compound] (Ac-Leu-Asp-Val-NH2), for which the “RELATIVE POTENCY (inhibition of VLA-4 binding CS-1)” value is 0.

Staying with this experiment, now noted: compared to standard 10-mer / B12.
In the case of `CC[C@H](C)[C@H](NC(=O)[C@H](CCC(=O)O)NC(=O)[C@@H]1CCCN1C(=O)CNC(=O)[C@H](Cc1c[nH]cn1)NC(=O)[C@H](CC(C)C)NC(=O)[C@H](CC(N)=O)NC(=O)[C@@H]1CCCN1C(=O)[C@H](Cc1c[nH]cn1)NC(=O)[C@@H]1CCCN1C(=O)[C@H](CC(C)C)NC(=O)[C@@H](NC(=O)[C@@H](NC(=O)[C@H](CC(C)C)NC(=O)[C@H](CCC(N)=O)NC(=O)[C@@H]1CCCN1C(=O)[C@H](CC(C)C)NC(=O)[C@H](CCC(=O)O)NC(=O)[C@@H](N)CC(=O)O)C(C)C)[C@@H](C)O)C(=O)N[C@@H](CC(C)C)C(=O)N[C@@H](CC(=O)O)C(=O)N[C@H](C(=O)N1CCC[C@H]1C(=O)N[C@@H](CO)C(=O)N[C@H](C(=O)O)[C@@H](C)O)C(C)C` [CS-1 peptide, reference compound] (H-DELPQLVTLPHPNLHGPEILDVPST-OH), the “binding inhibition (in words)” value is reported as “three times more potent”.

Still in this experiment, the particulars now being: relative to standard peptide SEQ ID NO:3 (=1), normalized IC50; about one-tenth or less of SEQ ID NO:3 assigned zero.
Take `CCCC[C@H](NC(=O)Cc1ccccc1)C(=O)N[C@@H](CC(=O)O)C(=O)N[C@@H](Cc1ccccc1)C(=O)N1CCC[C@@H]1C(N)=O` [X K D F p phenylacetyl amide J = Nle] (PhAc-[Nle]DF[dP]-NH2): the “RELATIVE POTENCY (inhibition of VLA-4 binding CS-1)” value was found to be 49.

As for `CCCCCCCCCCNC(=O)[C@@H]1CCCN1C(=O)[C@H](Cc1ccccc1)NC(=O)[C@H](CC(=O)O)NC(=O)[C@H](CC(C)C)NC(=O)Cc1ccccc1` [X L D F P Z phenylacetyl decylamide] (PhAc-LDFP-NHDecyl), the “RELATIVE POTENCY (inhibition of VLA-4 binding CS-1)” value worked out at 2.

Regarding `CC(C)C[C@H](NC(=O)Cc1ccccc1)C(=O)N[C@@H](CC(=O)O)C(=O)N[C@@H](Cc1ccccc1)C(=O)N1CCOCC1` [X L D F Z phenylacetyl morpholinamide, N--phenylacetyl--Leu--Asp--Phe--morpholinamide] (PhAc-Leu-Asp-Phe-Morpholide), the “RELATIVE POTENCY (inhibition of VLA-4 binding CS-1)” value was 844.

In the case of `CCCCNC(=O)[C@H](Cc1ccccc1)NC(=O)[C@H](CC(=O)O)NC(=O)[C@H](CC(C)C)NC(=O)Cc1ccccc1` [X L D F Z phenylacetyl n-butylamide] (PhAc-Leu-Asp-Phe-NHBu), the “RELATIVE POTENCY (inhibition of VLA-4 binding CS-1)” value is 3.

As to `CC(C)C[C@H](NC(=O)Cc1ccccc1)C(=O)N[C@@H](CC(=O)O)C(=O)N[C@@H](Cc1ccccc1)C(=O)N1CCNCC1` [X L D F Z phenylacetyl piperazinamide], the “RELATIVE POTENCY (inhibition of VLA-4 binding CS-1)” value worked out at 506.

For the compound `CC(C)C[C@H](NC(=O)Cc1ccccc1)C(=O)N[C@@H](CC(=O)O)C(=O)N[C@@H](Cc1ccccc1)C(=O)N1CCCCC1` [X L D F Z phenylacetyl piperidinamide, N--phenylacetyl--Leu--Asp--Phe--piperidinamide] (PhAc-Leu-Asp-Phe-Piperidide), the “RELATIVE POTENCY (inhibition of VLA-4 binding CS-1)” value turned out to be 231.

On to `CC(C)C[C@H](NC(=O)Cc1ccccc1)C(=O)N[C@@H](CC(=O)O)C(=O)N[C@@H](Cc1ccccc1)C(=O)N1CCCC1` [X L D F Z phenylacetyl pyrrolidinamide] (PhAc-Leu-Asp-Phe-Pyrrolidide), for which the “RELATIVE POTENCY (inhibition of VLA-4 binding CS-1)” value turned out to be 250.

Turning to `CC(C)C[C@H](NC(=O)c1ccccc1)C(=O)N[C@@H](CC(=O)O)C(=O)N[C@@H](Cc1ccccc1)C(=O)N1CCC[C@@H]1C(N)=O` [X L D F p benzoyl amide] (Bz-LDF[dP]-NH2), the “RELATIVE POTENCY (inhibition of VLA-4 binding CS-1)” value amounted to 75.

The experiment is the same for the next values; noted with them: relative to standard peptide SEQ ID NO:3 (=1), normalized IC50; about one-tenth or less of SEQ ID NO:3 assigned zero; listed as Leu--Asp--Val (LDV) Nfre amine Camide.
As for `CC(C)C[C@H](N)C(=O)N[C@@H](CC(=O)O)C(=O)N[C@H](C(N)=O)C(C)C` [L D V free amine amide, reference compound] (H-Leu-Asp-Val-NH2), the “RELATIVE POTENCY (inhibition of VLA-4 binding CS-1)” value is “zero”.

For the origin of these results see patent US6117840A, “CS-1 peptidomimetics, compositions and methods of using the same” (Cytel Corporation, priority 1997, dated 2000).
